One may read the MIC as the lowest concentration found to suppress growth. Broadly, the MIC50 is the lowest concentration that inhibits either 50% of growth or 50% of the strains tested, depending on the study. A high value points to weaker potency. One may read the MIC90 as an inhibitory concentration at the 90% level, which refers to growth in some studies and to a panel of isolates in others.

In assay [1] the test system is Mycobacterium tuberculosis. Description: Antibacterial activity against multidrug-resistant Mycobacterium tuberculosis harboring gyrA D94A mutation by agar proportion method. It counts as functional.
Assay [2] concerns Mycobacterium tuberculosis. Description: Antibacterial activity against multidrug-resistant Mycobacterium tuberculosis by agar proportion method. It counts as functional.

The structures appear in SMILES notation. Values after ≈ are worked out from the molar mass of the structure shown.

In assay [1], `CC(=O)NC[C@H]1CN(c2ccc(N3CCOCC3)c(F)c2)C(=O)O1` [LINEZOLID] yielded an MIC of 4 µg/mL (≈ 11.9 µM). Moreover, in assay [2], the MIC50 was found to be 0.5 µg/mL (≈ 1.48 µM) and the MIC90 came out at 0.5 µg/mL (≈ 1.48 µM).

For the origin of these results see ChEMBL document CHEMBL1671852, “In vitro activities of linezolid against clinical isolates of Mycobacterium tuberculosis complex isolated in Taiwan over 10 years” (2008).
